Where two headings read alike, the source gives them in different places.
What was measured:
[1] = test system: mice in which a state of hyper-resorption had been induced by a calcium-deficient diet; test: Anti-bone resorption-2: in vivo urinary [3H] tetracycline excretion in mice with hyper-resorption induced by calcium-deficient diet; conditions: calcium-deficient diet (0.4%)
Procedure: In vivo study according to the measurement method described by Konig, Muhlbauer and Fleisch ("Tumor necrosis factor and interleukine-1 stimulate bone resorption in vivo as measured by urinary [^3 H] tetracycline excretion from prelabeled mice", J. Bone Min. Res., 3, (1988), 621-627). A study was carried out on mice in which a state of hyper-resorption had been induced by a calcium-deficient diet (0.4%).

mouse calvaria [2] = test: Anti-bone resorption-1: inhibition of hyper-resorption in mouse calvaria (in vitro); format: cell-based; conditions: for inhibition at 50 µM / inhibition at 10 µM: hyper-resorption induced by 5×10^-8 M retinoic acid; for inhibition at 7.5 µM: 7,5 μM
[3] = target: porcine pancreatic phospholipase A2 (PLA2) (Sus scrofa, UniProt P00592); test: Inhibition of liberation of tritiated oleic acid from Escherichia coli membranes by porcine pancreatic phospholipase A2; format: biochemical; conditions: Test on Escherichia coli membranes
Text: The compounds of the present invention have an inhibiting activity on the liberation of tritiated oleic acid previously incorporated into Escherichia coli membranes under the effect of porcine pancreatic phospholipase A2 (PLA2) according to the technique described by Frason, Patriarca and Elsbach (J. Lipid. Res., 15, (1974), 380-388).

endogenous membrane PLA2 = test: Inhibition of liberation of arachidonic acid from isolated rat polymorphonuclears stimulated by ionophore; format: cell-based; conditions: Test on rat PMNs; ionophore stimulation
Procedure: In a cell model involving endogenous membrane PLA2, the compounds of the invention also exerted an inhibiting effect on the liberation of arachidonic acid by their action on isolated rat polymorphonuclears (PLN), the membrane phospholipids of which had been labelled with tritiated arachidonic acid. The degree of activity of the compounds of the invention is assessed by measuring the radioactivity liberated after stimulation by ionophore […] according to the technique described by Sakson, Raz, Denny, Wyche and Needleman (Prostaglandins, 14, (1977), 853, sqq.).

mouse calvaria [4] = test: Formation of osteoid tissue: incorporation of tritiated proline into bone tissue of mouse calvaria; format: cell-based; conditions: read-out: Stimulation of formation
Text: An effect promoting the formation of osteoid tissue (incorporation of tritiated proline from the medium into the bone tissue of mouse calvaria) has also been observed with some compounds: […]

Sequence of porcine pancreatic phospholipase A2 (PLA2) (P00592 23-146): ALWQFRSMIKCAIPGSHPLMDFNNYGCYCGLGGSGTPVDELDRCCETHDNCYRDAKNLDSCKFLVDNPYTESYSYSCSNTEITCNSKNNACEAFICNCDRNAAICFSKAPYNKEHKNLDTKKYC

Row | Compound | IC50 [3] | IC50 (endogenous membrane PLA2) | further results
1 | CCOC(=O)/C=C(C)/C=C/C=C(C)/C=C/c1c(C)cc(OC)c(C)c1C [Etretinate, reference compound] | – | – | Effect on hyper-resorption / urinary excretion of tritiated tetracycline (in words) [1]: tends to increase the urinary excretion of tritiated tetracycline; % variation in urinary [3H] tetracycline excretion ([1]; oral dose 50 mg/kg): +11%; % variation in urinary [3H] tetracycline excretion ([1]; oral dose 100 mg/kg): +3%; inhibition at 50 µM (mouse calvaria [2]): 11%
2 | Cc1cc(C)c2c(c1)C=C(/C=C/C=C/C=C\C(=O)O)CO2 [Example 2, (2Z,4E,6E)-7-(6,8-Dimethyl-2H-chromen-3-yl) hepta-2,4,6-trienoicacid] | – | – | % variation in urinary [3H] tetracycline excretion ([1]; oral dose 50 mg/kg): -10%; % variation in urinary [3H] tetracycline excretion ([1]; oral dose 100 mg/kg): -10%; % variation in urinary [3H] tetracycline excretion ([1]; oral dose 200 mg/kg): -12%
3 | CC(C)c1ccc2c(c1)C=C(/C=C/C=C/C=C/C(=O)O)CO2 [Example 5, (2E,4E,6E)-7-(6-Isopropyl-2H-chromen-3-yl) hepta-2,4,6-trienoic acid] | 7.5 µM | 30 µM | –
4 | CC(C)(C)c1ccc2c(c1)C=C(/C=C/C=C/C=C/C(=O)O)CO2 [Example 6, (2E,4E,6E)-7-(6-Tert.-butyl-2H-chromen-3-yl) hepta-2,4,6-trienoic acid] | 9 µM | 10 µM | –
5 | Cc1cc2c(c(C(C)(C)C)c1)OCC(/C=C/C=C/C=C/C(=O)O)=C2 [Example 11, (2E,4E,6E)-7-(6-Methyl-8-tert.-butyl-2H-chromen-3-yl)hepta-2,4,6-trienoic acid] | 6 µM | 5 µM | –
6 | CC(C)(C)c1cc2c(c(C(C)(C)C)c1)OCC(/C=C/C=C/C=C/C(=O)O)=C2 [Example 13, (2E,4E,6E)-7-(6,8-Ditert.-butyl-2H-chromen-3-yl)hepta-2,4,6-trienoic acid] | 3 µM | 5 µM | –
7 | Cc1cc(Cl)c2c(c1)C=C(/C=C/C=C/C=C/C(=O)O)CO2 [Example 14, (2E,4E,6E)-7-(6-Methyl-8-chloro-2H-chromen-3-yl)hepta-2,4,6-trienoic acid] | 20 µM | 50 µM | –
8 | Cc1cc(Cl)cc2c1OCC(/C=C/C=C/C=C/C(=O)O)=C2 [Example 15, (2E,4E,6E)-7-(6-Chloro-8-methyl-2H-chromen-3-yl)hepta-2,4,6-trienoic acid] | 10 µM | 50 µM | –
9 | Cc1cc(C)c2c(c1)C=C(/C=C/C=C/C=C/C(=O)O)C(C)(C)O2 [Example 18, (2E,4E,6E)-7-(2,2,6,8-Tetramethyl-2H-chromen-3-yl)hepta-2,4,6-trienoic acid] | 30 µM | 30 µM | –
10 | Cc1cc(Cl)cc2c1OC(C)(C)C(/C=C/C=C/C=C/C(=O)O)=C2 [Example 19, (2E,4E,6E)-7-(2,2,8-Trimethyl-6-chloro-2H-chromen-3-yl)hepta-2,4,6-trienoic acid] | 30 µM | 50 µM | –
11 | O=C(O)/C=C/C=C/C=C/C1=Cc2cc(Cl)cc(Cl)c2OC1 [Example 20, (2E,4E,6E)-7-(6,8-Dichloro-2H-chromen-3-yl) hepta-2,4,6-trienoic acid] | 8 µM | 30 µM | –
12 | CCOC(=O)/C=C(C)/C=C/C=C(\C)C1=Cc2cc(-c3ccccc3)ccc2OC1 [Example 25, Ethyl (2E,4E,6E)-3-methyl-7-(6-phenyl-2-H-chromen-3-yl)octa-2,4,6-trienoate] | 5 µM | – | inhibition at 50 µM (mouse calvaria [2]): 15%
13 | CC(/C=C/C=C(\C)C1=Cc2cc(-c3ccccc3)ccc2OC1)=C\C(=O)O [Example 26, (2E,4E,6E)-3-Methyl-7-(6-phenyl-2H-chromen-3-yl)octa-2,4,6-trienoic acid] | 5 µM | – | activation at 10 µM (mouse calvaria [4]): 7%; inhibition at 10 µM (mouse calvaria [2]): 11%; inhibition at 50 µM (mouse calvaria [2]): 29%
14 | CCOC(=O)\C=C(C)/C=C/C=C(\C)C1=Cc2cc(-c3ccccc3)ccc2OC1 [Example 27] | 7.5 µM | – | inhibition at 10 µM (mouse calvaria [2]): 11%
15 | CCOC(=O)/C=C(C)/C=C/C=C(\C)C1=Cc2cc(C)ccc2OC1 [Example 32, Ethyl (2E,4E,6E)-7-(6-methyl-2H-chromen-3-yl)-3-methylocta-2,4,6-trienoate] | 7.5 µM | – | inhibition at 10 µM (mouse calvaria [2]): 14%; inhibition at 50 µM (mouse calvaria [2]): 12%
16 | CCOC(=O)/C=C(C)/C=C/C=C(\C)C1=Cc2cc(C(C)(C)C)ccc2OC1 [Example 33, Ethyl (2E,4E,6E)-7-(6-tert.-butyl-2H-chromen-3-yl)-3-methylocta-2,4,6-trienoate] | – | – | inhibition at 10 µM (mouse calvaria [2]): 3%
17 | CCOC(=O)/C=C(C)/C=C/C=C(\C)C1=Cc2cc(C)cc(C)c2OC1 [Example 35, Ethyl (2E,4E,6E)-7-(6,8-dimethyl-2H-chromen-3-yl)-3-methylocta-2,4,6-trienoate] | 5 µM | – | activation at 10 µM (mouse calvaria [4]): 11%; inhibition at 10 µM (mouse calvaria [2]): 15%; inhibition at 50 µM (mouse calvaria [2]): 32%; inhibition at 7.5 µM (mouse calvaria [2]; parathormone (PTH) 500 ng/ml, read-out: Hyper-resorption with PTH): 12%; inhibition at 7.5 µM (mouse calvaria [2]; retinoic acid, read-out: Hyper-resorption with retinoic acid): 9%
18 | CCOC(=O)/C=C(C)/C=C/C=C(\C)C1=Cc2cc(C(C)(C)C)cc(C)c2OC1 [Example 36, Ethyl (2E,4E,6E)-7-(6-tert.-butyl-8-methyl-2H-chromen-3-yl)-3-methylocta-2,4,6-trienoate] | 5 µM | – | –
19 | CC(/C=C/C=C(\C)C1=Cc2cc(C(C)(C)C)ccc2OC1)=C\C(=O)O [Example 41, (2E,4E,6E)-7-(6-Tert.-butyl-2H-chromen-3-yl)-3-methylocta-2,4,6-trienoic acid] | 4 µM | – | –
